The test system of experiment [1] is SARS-CoV. The experiment can be described thus: Antiviral activity against SARS-Cov urbani by neutral red uptake analysis. In kind it is functional, organism-based. Conditions: Severe acute respiratory syndrome-related coronavirus.
In experiment [2] the test system is Marburgvirus. The experiment is described as follows: Antiviral activity against MARV musoke by high-content image analysis. In kind it is functional, organism-based. Conditions: Orthomarburgvirus.
The test system of experiment [3] is dengue virus type 2. The experiment can be described thus: Antiviral activity against DENV2 new Guinea by neutral red uptake analysis. The format is functional, organism-based.
Experiment [4] deals with Ebolavirus. The experiment can be described thus: Antiviral activity against EBOV Kikwit by high-content image analysis. The format is functional, organism-based. Particulars: Orthoebolavirus.
Experiment [5] deals with Sudan ebolavirus. The experiment can be described thus: Antiviral activity against SUDV Boniface by high-content image analysis. The format is functional.
The test system of experiment [6] is Middle East respiratory syndrome-related coronavirus. The experiment is described as follows: Antiviral activity against MERS-CoV jordan N3 by high-content image analysis. The format is functional, organism-based.
The test system of experiment [7] is Ebolavirus. The experiment is described as follows: Antiviral activity against EBOV infected in Vero E6 cells assessed as reduction in virus titer incubated for 5 days by immunofocus assay. The format is functional, organism-based. Particulars: Orthoebolavirus, Vero C1008, 120 h.
For experiment [8], the system named is Ebolavirus. The experiment can be described thus: Antiviral activity against EBOV infected in HMVEC cells. In kind it is functional, organism-based. Conditions: Orthoebolavirus.
Experiment [9] has as its system dengue virus type 2. The experiment can be described thus: Antiviral activity against DENV-2 infected in Baby hamster BHK cells assessed as reduction in virus-induced cytopathic effect. The format is functional, organism-based. For orientation: Damage to the host cells serves as the signal in cytopathic effect assays.
Experiment [10] concerns Marburgvirus. The experiment can be described thus: Antiviral activity against Marburg virus. In kind it is functional, organism-based. Particulars: Orthomarburgvirus.
Experiment [11] deals with Ebolavirus. The experiment can be described thus: Antiviral activity against pseudo typed EBOV infected in human A549 cells assessed as inhibition of viral growth. In kind it is functional, organism-based. Particulars: Orthoebolavirus.
The test system of experiment [12] is Ebolavirus. The experiment is described as follows: Antiviral activity against pseudo typed EBOV infected in human HEK293T cells assessed as inhibition of viral growth. In kind it is functional, organism-based. Conditions: Orthoebolavirus, HEK-293T.
In experiment [13] the test system is Ebolavirus. The experiment is described as follows: Antiviral activity against EBOV infected in human A549 cells assessed as inhibition of viral growth. The format is functional, organism-based. Conditions: Orthoebolavirus.
For experiment [14], the system named is Marburgvirus. The experiment is described as follows: Antiviral activity against MARV infected in human A549 cells assessed as inhibition of viral growth. Conditions: Orthomarburgvirus. In kind it is functional, organism-based.
For experiment [15], the system named is Ebolavirus. The experiment can be described thus: Antiviral activity against EBOV. In kind it is functional, organism-based. Particulars: Orthoebolavirus.
Experiment [16] has as its system dengue virus type 2. The experiment is described as follows: Antiviral activity against DENV2 infected in human A549 cells at 25 uM incubated for 24 hrs by plaque assay relative to control. The format is functional.
Experiment [17] has as its system SARS-CoV. The experiment can be described thus: Antiviral activity against SARS-CoV assessed as reduction in virus-induced cytopathic effect. In kind it is functional, organism-based. Conditions: Severe acute respiratory syndrome-related coronavirus.

Converted amounts (≈) assume the structure as drawn.

The source of these data is ChEMBL document CHEMBL5096148, “Natural Products with Potential to Treat RNA Virus Pathogens Including SARS-CoV-2” (J Nat Prod, 2021).

Broadly, the EC50 is the concentration at which the effect is half-maximal. As for `Nc1ncnc2c([C@@H]3N[C@H](CO)[C@@H](O)[C@H]3O)c[nH]c12`, the concentration for a half-maximal effect (EC50) in [1] came to 57.7 µM; in experiment [2] it was 4.4 µM; in experiment [3] it was 32.8 µM; in [4] it was 11.8 µM; in experiment [5] it was 3.4 µM; in [6] it was 68.4 µM. The term IC50 denotes the concentration needed to halve the response being measured. In general, IC90 refers to the point of the concentration-response curve where the effect stands at 90%. As for `NC(=O)c1nc(F)cnc1O`, in experiment [7], the concentration for half-maximal inhibition (IC50) was determined as 67 µM. The IC90 in [7] (time 5 day) amounted to 110 µM.

On to `CCC(CC)COC(=O)[C@H](C)N[P@](=O)(OC[C@H]1O[C@@](C#N)(c2ccc3c(N)ncnn23)[C@H](O)[C@@H]1O)Oc1ccccc1`, for which the 50% effective concentration (EC50) in experiment [8] was 0.06 µM. With `CN[C@@H]1[C@@H](O)[C@H](O[C@@H]2[C@@H](O)[C@H](O[C@H]3O[C@H]([C@H](C)O)[C@@H](O)[C@H](O)[C@H]3N)[C@@H](N)C[C@H]2N)OC[C@]1(C)O`, the EC50 in experiment [9] was determined as 3 µg/mL (≈ 6.04 µM). As to `C=C(C)O[C@@H]1[C@@H](OC(C)=O)[C@H](NC(=O)[C@]23CCC(C)(C)C[C@H]2C2=CC[C@@H]4[C@@]5(C)CCC(=O)C(C)(C)[C@@H]5CC[C@@]4(C)[C@]2(C)CC3=O)O[C@H](COC(C)=O)[C@@H]1OC(C)=O`, the values for the IC50 in experiment [10] and in experiment [11] were 2.29 µM and 0.0592 µM, respectively. Regarding `C#CN(CCCC1(C)N=N1)C(=O)[C@]12CCC(C)(C)C[C@H]1C1=CC[C@@H]3[C@@]4(C)CCC(=O)C(C)(C)[C@@H]4CC[C@@]3(C)[C@]1(C)CC2=O`, the figures for the concentration for half-maximal inhibition (IC50) in experiment [10] and in experiment [12] were 5.52 µM and 0.467 µM, respectively. Consider `O=c1oc2c(O)c(O)cc3c(=O)oc4c(O)c(O)cc1c4c23` [ELLAGIC ACID], for which the IC50 in experiment [13] was determined as 1.4 µM; in experiment [14], 6.4 µM.

Molecule `C=CCc1ccc(O)c(OC)c1` [EUGENOL] registered a 50% effective concentration (EC50) in [15] of 1.3 µM. With `C[C@H](CC[C@H](O)[C@](C)(O)CO)[C@H]1CC[C@@]2(C)C3=CC[C@H]4C(C)(C)C(=O)CC[C@]4(C)C3=CC[C@]12C` [GANODERMANONTRIOL], the Activity in experiment [16] is given as 25%. As for `O[C@H]1[C@H]2c3cc4c(cc3CN3CCC(=C[C@@H]1O)[C@H]23)OCO4` [LYCORINE], in [17], the EC50 amounted to 0.0157 µM.
